Like-named read-outs stand apart in the source and are kept apart here.
What was measured:
[1] = in vivo, po; cited from earlier work
[2] = tested on: hiPSC-CM; experiment: hiPSC-CM MEA assay (FPDc, extracellular field potential)
Method: Briefly, each well of the MEA chips was precoated with 50 μg/ml fibronectin for 3 h in the incubator at 37 °C with 5% CO2. The fibronectin coating solution was aspirated before seeding. Cells were thawed in the incubator at 37 °C for exactly 4 min and carefully transferred to a 50-ml tube. The original vial was rinsed with serum free Pluricyte® Cardiomyocyte Medium and added drop-wise to the tube containing the cardiomyocytes. […] Then, the supernatant was removed and medium was drop-wisely added to reach the aimed concentration of cells in the suspension (10^4 cells/μl). 2-μl cell suspension per well was placed on the six-well MEA chips in a density of 10^4 cells/μl. After 3-h incubation (37 °C, 5% CO2), 200 μl of medium was filled into each well of the MEA chips which were subsequently incubated at 37 °C with 5% CO2 and refreshed with medium every 2 days.
At 7–8 days after seeding, MEA chips were placed on the headstage of a MEA2100-system (MCS GmbH) integrated with the chamber providing a stable atmosphere (37 °C, 5% CO2) to record the extracellular field potential (Fig. 2) of spontaneous beating hiPSC-CM. After an equilibration time of 20 min, half of the medium (100 μl) in each well was replaced by culture medium containing 0.2% (v/v) DMSO to reach a final concentration of 0.1% (v/v) DMSO, which was used as baseline condition. […] At each concentration, the extracellular field potential was recorded for 1 min after 10-min exposure. […] Same test concentrations were chosen for EDDP and EMDP, which enables definition of concentration-dependent curves for EDDP and EMDP that allow potency comparison.
One well of 0.1% (v/v) DMSO on each MEA chip was used as the vehicle control well and run at the same time as the compound exposure wells to correct for time- and DMSO-dependent effects on the field potential. A detailed exposure scheme can be found in Fig. S1. Data were collected using Cardio 2D software (MCS GmbH) with a sample frequency of 10 kHz and a 0.1–3.5-kHz band-pass filter.
Field potential duration (FPD) was defined as duration between the beginning of the sodium spike and the repolarizing peak (Fig. 2). RR-intervals were defined as the duration between two depolarization peaks (Fig. 2). The FPD and RR-interval were measured as the average of at least 30 beats from 1-min recording at each concentration of the test compound.
In this formula, the FPD and RR-interval are expressed in seconds. Data were collected from at least three independent experiments (4–8 wells, 26–38 electrodes), using a new vial of cells (all from the same batch) at each independent experiment. […] The concentrations inducing irregularities in the field potential trace (Fig. S2) were also noted.
The concentration–response curves were plotted with GraphPad Prism 5.0 using the four-parameters logistic fit (GraphPad Software Inc., San Diego, USA). Each data point is presented as the mean value of at least three independent experiments ± standard deviation (SD). Statistical significance of the changes in response of cells exposed to the compound compared to the solvent control was analyzed by one-way ANOVA followed by post Dunnett test. Values of p < 0.05 were regarded as statistically significant (p < 0.05: *, p < 0.01: ** and p < 0.001: ***). Statistical analysis was performed by GraphPad Prism 5.0 (GraphPad Software Inc.).

[3] = ref Eap et al. [1990]; Olsen [1973]; Romach et al. [1981]; Wilkins et al. [1997]; cited from earlier work
[4] = RED assay, unbound fraction in in vitro hiPSC-CM MEA assay medium; conditions: in vitro hiPSC-CM MEA assay medium (serum-free)
[5] = In vitro incubations with pooled human intestinal microsomes
[6] = tested on: QTc interval in the human ECG; experiment: PBK modeling-based reverse dosimetry and BMD analysis of predicted QTc dose-response; conditions: 70 kg
[7] = steady-state blood (plasma x BPr), cited from earlier work
[8] = tested on: QTc interval in the human ECG; conditions: cited from earlier work
[9] = oral 57.5 mg/day, 64.7 kg, ref De Vos et al. ([1995])
[10] = oral 70 mg/day, 74 kg, sum of enantiomers, ref Foster et al. ([2000])
[11] = oral 100 mg/day, 90 kg, sum of enantiomers, ref Liu et al. ([2007])
[12] = case serials, person, 330 mg/day, baseline 411 ms assumed, ref Krantz et al. (2002)
[13] = cross-sectional, MMT and pain, 110 mg/day, 12.5 months, baseline 407 ms, ref Cruciani et al. (2005)
[14] = cross-sectional, MMT, 80 ± 27.5 mg/day, > 3 months, baseline 407 ms, ref Roy et al. (2012)
[15] = cross-sectional, MMT, 87 ± 76 mg/day, > 6 months, baseline 407 ms, ref Maremmani et al. (2005)
[16] = cross-sectional, MMT, 145 ± 83 mg/day, 61 ± 61 months, baseline 407 ms, ref Eap et al. (2007)
[17] = cross-sectional, MMT, 162.7 ± 28.7 mg/day, > 100 days, baseline 407 ms, ref Peles et al. (2007)
[18] = individual from prospective study, person one, 30 mg/day, baseline 420 ms, ref Fredheim et al. (2006)
[19] = individual from prospective study, person two, 30 mg/day, baseline 420 ms, ref Fredheim et al. (2006)
[20] = longitudinal, MMT, 45 ± 24 mg/day, 6 months, baseline 422 ± 24 ms, ref Chang et al. (2012)
[21] = prospective, MMT, 80 mg/day, 6 months, baseline 418.1 ±22 ms, ref Martell et al. (2005)
[22] = prospective, MMT, 64.6 ± 30.5 mg/day, 21 days, baseline 389.3 ms, ref Carlquist et al. (2015)
[23] = prospective, MMT, 80 ± 32 mg/day, 6 months, baseline 415.3 ms, ref Krantz et al. (2005)
[24] = prospective, cancer pain, 23 mg/day, 2 weeks, baseline 427 ms, ref Reddy et al. (2010)
[25] = retrospective, MMT, 87.9 mg/day, baseline 407 ms, ref Chowdhury et al. (2015)
[26] = retrospective, MMT, 100 mg/day, baseline 430 ms, ref Ehret et al. (2006)
[27] = retrospective, MMT, 74.5 ± 26.5 mg/day, 1.2 ± 1.6 years, baseline 429 ± 35 ms, ref Bart et al. (2017)
[28] = retrospective, MMT, 98 ± 55 mg/day, 74 ± 31 months, baseline 420 ± 33 ms, ref Fareed et al. (2013)
[29] = retrospective, veteran, 11 mg/day, 161 days, baseline 428 ms, ref Heesch et al. (2015)
[30] = retrospective, veteran, 24 mg/day, 161 days, baseline 436 ms, ref Heesch et al. (2015)
[31] = retrospective, veteran, 75 mg/day, 161 days, baseline 437 ms, ref Heesch et al. (2015)

CCC(=O)C(CC(C)N(C)C)(c1ccccc1)c1ccccc1 (stereo not drawn) [methadone]
Fraction absorbed (Fa) [1]: 0.88
BMC20, prolongation of FPDc ([2]; 20% change in FPDc over control, cumulative addition, 10-min exposure): 0.6 µM
concentration at which cessation of beating was observed ([2]; human, 10 min): 30 µM
concentration from which arrhythmia-like waveforms were induced ([2]; tested up to 30 µM): ≥ 3 µM
cytotoxicity at the test concentrations ([2]; up to 30 µM, data not shown): no cytotoxicity was observed
fu,p, extreme value (low) [3]: 0.034
fraction unbound at 5 h, 150 µM [4]: 0.79 ± 0.041
formation of EDDP ([5]; 50 µM methadone, up to 120 min, up to 2 mg/ml protein): negligible formation of EDDP
EMDP formation ([5]; methadone as substrate): no EMDP formation was detected
BMDL10 ([6]; fu,p 0.034, model averaging): 109 mg/day
BMDU10 ([6]; fu,p 0.034, model averaging): 509 mg/day
BMDL10 ([6]; fu,p 0.055, model averaging): 66.7 mg/day
BMDU10 ([6]; fu,p 0.055, model averaging): 316 mg/day
BMDL10 ([6]; fu,p 0.15, model averaging): 24.2 mg/day
BMDU10 ([6]; fu,p 0.15, model averaging): 117 mg/day
BMDL10 ([6]; fu,p 0.22, model averaging): 16.5 mg/day
BMDU10 ([6]; fu,p 0.22, model averaging): 79.5 mg/day
In vivo AUC [7, 9]: 5978 ng·h/mL
In vivo Cmax [7, 9]: 383.6 ng/mL
In vivo Cmax ([7]; oral 61 mg/day, body weight set to 70 kg, ref Diong et al. ([2014])): 216.0 ng/mL
In vivo AUC [7, 10]: 5097 ng·h/mL
In vivo Cmax [7, 10]: 346.2 ng/mL
In vivo AUC [7, 11]: 7889 ng·h/mL
In vivo Cmax [7, 11]: 453.6 ng/mL
Post QTc ([8]; case report, 100 mg/day, baseline 405 ms assumed, ref Esses et al. (2008)): 580 ms
Post QTc ([8]; case serials, person, 97 mg/day, baseline 405 ms assumed, ref Krantz et al. (2002)): 560 ms
Post QTc ([8]; case serials, person, 270 mg/day, baseline 411 ms assumed, ref Krantz et al. (2002)): 600 ms
Post QTc [8, 12]: 522 ms
QTc (% to baseline) [8, 12]: 127.0%
Post QTc ([8]; case serials, person, 550 mg/day, baseline 405 ms assumed, ref Krantz et al. (2002)): 625 ms
Post QTc ([8]; case serials, person, 600 mg/day, baseline 405 ms assumed, ref Krantz et al. (2002)): 635 ms
Post-QTc [8, 13]: 428 ms
QTc % [8, 13]: 105.2%
Post-QTc [8, 14]: 421 ms
QTc % [8, 14]: 103.4%
Post-QTc [8, 15]: 423 ms
QTc % [8, 15]: 103.9%
Post-QTc [8, 16]: 423 ± 23 ms
QTc % [8, 16]: 103.9%
Post-QTc [8, 17]: 447.6 ± 31.7 ms
QTc % [8, 17]: 110.0%
Post QTc [8, 18]: 410 ms
QTc (% to baseline) [8, 18]: 97.6%
Post QTc [8, 19]: 490 ms
QTc (% to baseline) [8, 19]: 116.7%
Post-QTc [8, 20]: 430 ± 23 ms
QTc % [8, 20]: 101.9%
Post-QTc [8, 21]: 430.8 ± 24 ms
QTc % [8, 21]: 103.04%
Post-QTc [8, 22]: 411.1 ms
QTc % [8, 22]: 105.6%
Post-QTc [8, 23]: 429.4 ms
QTc % [8, 23]: 103.40%
Post-QTc [8, 24]: 430 ms
QTc % [8, 24]: 100.7%
Post-QTc [8, 25]: 453 ms
QTc % [8, 25]: 111.3%
Post-QTc [8, 26]: 440 ms
QTc % [8, 26]: 102.33%
Post-QTc [8, 27]: 440 ± 35 ms
QTc % [8, 27]: 102.6%
Post-QTc [8, 28]: 459 ± 29 ms
QTc % [8, 28]: 109.3%
Post-QTc [8, 29]: 430 ms
QTc % [8, 29]: 100.5%
Post-QTc [8, 30]: 439 ms
QTc % [8, 30]: 100.7%
Post-QTc [8, 31]: 446 ms
QTc % [8, 31]: 102.1%

Reference: PMC7395048 (Archives of Toxicology, 2020)
